The text below walks through data of ChEMBL document CHEMBL2346659, “Anti-adipogenic diarylheptanoids from Alnus hirsuta f. sibirica on 3T3-L1 cells” (Bioorg Med Chem Lett, 2013).

The structures appear in SMILES notation. Calls of active or inactive are those of the source. The calls are words filed in the database; no cut-off is given here.

The subject of data set [1] is 3T3-L1. Put plainly: Inhibition of differentiation of mouse 3T3L1 cells assessed as reduction of lipid accumulation after 8 days by using Oil Red O staining by spectrophotometry relative to control. Type of data set: functional, cell-based.
Data set [2] concerns 3T3-L1. Put plainly: Inhibition of differentiation of mouse 3T3L1 cells assessed as lipid accumulation at 10 uM after 8 days by using Oil Red O staining by spectrophotometry relative to control. Type of data set: functional.
Data set [3] relates to 3T3-L1. Put plainly: Inhibition of differentiation of mouse 3T3L1 cells assessed as lipid accumulation at 50 uM after 8 days by using Oil Red O staining by spectrophotometry relative to control. Type of data set: functional.
Data set [4] concerns 3T3-L1. Put plainly: Inhibition of differentiation of mouse 3T3L1 cells assessed as lipid accumulation at 100 uM after 8 days by using Oil Red O staining by spectrophotometry relative to control. Type of data set: functional.
Data set [5] relates to 3T3-L1. Put plainly: Cytotoxicity against mouse 3T3L1 cells at 100 uM. Type of data set: cell-based. The conditions noted are these: 3t3-l1, 100 µM.
Data set [6] has as its system 3T3-L1. Put plainly: Induction of differentiation of mouse 3T3L1 cells assessed as lipid accumulation at 10 uM after 8 days by using Oil Red O staining by spectrophotometry relative to control. The conditions noted are these: 3t3-l1, 192 h. Type of data set: cell-based.
The subject of data set [7] is 3T3-L1. Put plainly: Antiadipogenic activity in mouse 3T3L1 cells assessed as inhibition of PPAR-gamma expression at 10 to 50 uM after 8 days by Western blot analysis. Type of data set: functional, cell-based. A general note: In western blotting, separated proteins are transferred to a membrane and probed.
In data set [8] the test system is 3T3-L1. Put plainly: Antiadipogenic activity in mouse 3T3L1 cells assessed as inhibition of C/EBPalpha expression at 10 to 50 uM after 8 days by Western blot analysis. Type of data set: functional, cell-based.
Data set [9] relates to 3T3-L1. Put plainly: Inhibition of differentiation of mouse 3T3L1 cells assessed as lipid accumulation at 100 uM after 8 days by using Oil Red O staining by spectrophotometry relative to control in presence of troglitazone. Type of data set: functional. Also on record: scale not given: the % may be the effect or the level left.

In the case of `O=C(/C=C/CCc1ccc(O)c(O)c1)/C=C/c1ccc(O)c(O)c1`, the inhibition result with 3T3-L1 [1] is “Dose-dependent effect”. For the same compound, the “Lipid accumulation relative to control” value in the data set on 3T3-L1 [2] is recorded as 86.5%. Also, the “Lipid accumulation (% of control)” value in the data set on 3T3-L1 [3] came to 66.5%; in the data set with 3T3-L1 [4] it was 36.5%.

Take `Oc1ccc(CCCC[C@@H](O)CCc2ccc(O)c(O)c2)cc1O`: the “Lipid accumulation relative to control” value in the data set on 3T3-L1 [2] is 84.6%. The results for the “Lipid accumulation (% of control)” value with 3T3-L1 [3] and in the data set on 3T3-L1 [4] were 86.4% and 90%, respectively.

`OC[C@H]1O[C@@H](O[C@H](CCCCc2ccc(O)cc2)CCc2ccc(O)cc2)[C@H](O)[C@@H](O)[C@@H]1O`: in the data set on 3T3-L1 [2], the “Lipid accumulation relative to control” value is recorded as 76%. Besides, the “Lipid accumulation (% of control)” value with 3T3-L1 [3] came to 103.1%; in the data set on 3T3-L1 [4], 98.1%.

On to `O=C(/C=C/C=C/c1ccc(O)c(O)c1)CCc1ccc(O)c(O)c1`, for which the “Lipid accumulation relative to control” value in the data set with 3T3-L1 [2] was 104.4%. Also, the “Lipid accumulation (% of control)” value with 3T3-L1 [3] came to 108.9%; with 3T3-L1 [4] it was 103%.

On to `O=C(CCc1ccc(O)c(O)c1)C[C@@H](O)CCc1ccc(O)c(O)c1` [HIRSUTANONOL], for which, in the data set on 3T3-L1 [1], the inhibition entry is “Dose-dependent effect”. The “Lipid accumulation relative to control” value in the data set with 3T3-L1 [2] was found to be 83.9%. Moreover, the “Lipid accumulation (% of control)” value was determined as 72.6% in the data set on 3T3-L1 [3] and 59.9% with 3T3-L1 [4].

As to `O=C(O[C@@H]1Cc2c(O)cc(O)cc2O[C@@H]1c1cc(O)c(O)c(O)c1)c1cc(O)c(O)c(O)c1` [EPIGALOCATECHIN GALLATE], in the data set on 3T3-L1 [2], the “Lipid accumulation relative to control” value worked out at 94.9%. Besides, the “Lipid accumulation (% of control)” value in the data set with 3T3-L1 [3] came out at 81.9%; in the data set with 3T3-L1 [4], 54.5%.

Consider `Oc1ccc(CC[C@@H](O)C[C@H](O)CCc2ccc(O)cc2)cc1` [(+)-HANNOKINOL], for which the “Lipid accumulation relative to control” value with 3T3-L1 [2] was found to be 90.2%. For the same compound, in the data set with 3T3-L1 [3], the “Lipid accumulation (% of control)” value stood at 61.2%. In addition, the Activity result in the data set on 3T3-L1 [5] is “Toxic”.

For `O=C(CCc1ccc(O)cc1)C[C@@H](O)CCc1ccc(O)c(O)c1`, the inhibition result in the data set on 3T3-L1 [1] is “Dose-dependent effect”. For the same compound, the “Lipid accumulation relative to control” value in the data set with 3T3-L1 [2] was 77.3%. For the same compound, the “Lipid accumulation (% of control)” value is on record as 70.5% with 3T3-L1 [3] and 57.6% in the data set with 3T3-L1 [4].

`O=C(/C=C/CCc1ccc(O)c(O)c1)CCc1ccc(O)c(O)c1` [DEHYDROHIRSUTANONOL]: the inhibition entry in the data set on 3T3-L1 [1] was “Dose-dependent effect”. For the same compound, the “Lipid accumulation relative to control” value with 3T3-L1 [2] is recorded as 86.1%. For the same compound, the entries for the “Lipid accumulation (% of control)” value with 3T3-L1 [3] and with 3T3-L1 [4] were 45.7% and 38.6%, respectively.

Consider `O=C(/C=C/c1ccc(O)c(O)c1)C[C@@H](O)CCc1ccc(O)cc1`, for which, in the data set with 3T3-L1 [1], the inhibition result was “Dose-dependent effect”. The “Lipid accumulation relative to control” value in the data set on 3T3-L1 [2] turned out to be 92.6%. Also, the “Lipid accumulation (% of control)” value in the data set on 3T3-L1 [3] is given as 81.8%; with 3T3-L1 [4], 58.8%.

As for `Cc1c(C)c2c(c(C)c1O)CCC(C)(COc1ccc(CC3SC(=O)NC3=O)cc1)O2` (stereo not drawn) [TROGLITAZONE], the Activity with 3T3-L1 [6] is on record as 107.1%.

For `O=C(CCc1ccc(O)cc1)C[C@H](CCc1ccc(O)cc1)O[C@@H]1OC[C@@H](O)[C@H](O)[C@H]1O`, the inhibition entry with 3T3-L1 [1] was “Dose-dependent effect”. Besides, the “Lipid accumulation relative to control” value with 3T3-L1 [2] amounted to 81.7%. The inhibition entry in the data set on 3T3-L1 [7] and with 3T3-L1 [8] was “Active” in each case. Also, the “Lipid accumulation (% of control)” value in the data set on 3T3-L1 [3] worked out at 28.9%; with 3T3-L1 [4], 14.4%. Besides, the Activity with 3T3-L1 [9] amounted to 20.8%.
